Where a name gives a salt, the structure may show the parent alone.
How the values were obtained:
Format in all cases: biochemical
[1] = target: T1, GST-tagged recombinant full-length human Pim-2 (Homo sapiens, UniProt Q9P1W9); test: PIM-2 Assay (as Example A); conditions: averaged IC50; 4 μM ATP, 1.0 μM PIM2tide, 1.5 nM Pim-2
T1 construct: GST-tagged recombinant full-length human Pim-2; GST
Procedure, shortened: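 IC50 was derived by 4-parameter logistic fitting of percent-of-control data over a 10-point, 3-fold series (highest 10 μM, 2% DMSO). Reactions held 1.5 nM GST-Pim-2 (full-length, human), 4 μM [γ-33P]ATP and 1.0 μM PIM2tide for 60 min at 22 °C, pH 7.4; 33P-peptide captured on P81 filters.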

recombinant rat PIM-3 = recombinant rat PIM-3 (Rattus norvegicus, UniProt O70444); test: PIM-3 Assay (as Example A); conditions: averaged IC50; 30 μM ATP, 3.75 μM PIM2tide, 0.5 nM PIM-3
Procedure, shortened: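 33P incorporation from 30 μM [γ-33P]ATP into 3.75 μM PIM2tide by 0.5 nM rat PIM-3, 60 min at 22 °C in pH 7.4 MOPS buffer, read by P81 filter capture and scintillation counting. Compounds tested in 3-fold dilutions up to 10 μM final, 2% DMSO; percent-of-control data fitted by 4-parameter logistic for IC50.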

PIM-1 = PIM-1 (Homo sapiens, UniProt P11309); test: Enzyme PIM-1 Assay ([33P]ATP incorporation into PIM2tide, filter plate); conditions: averaged IC50; 35 μM ATP, 7.5 μM PIM2tide, 0.25 nM PIM-1, 60 min at 22° C.
PIM-1, sequence (P11309 whole entry, species assumed): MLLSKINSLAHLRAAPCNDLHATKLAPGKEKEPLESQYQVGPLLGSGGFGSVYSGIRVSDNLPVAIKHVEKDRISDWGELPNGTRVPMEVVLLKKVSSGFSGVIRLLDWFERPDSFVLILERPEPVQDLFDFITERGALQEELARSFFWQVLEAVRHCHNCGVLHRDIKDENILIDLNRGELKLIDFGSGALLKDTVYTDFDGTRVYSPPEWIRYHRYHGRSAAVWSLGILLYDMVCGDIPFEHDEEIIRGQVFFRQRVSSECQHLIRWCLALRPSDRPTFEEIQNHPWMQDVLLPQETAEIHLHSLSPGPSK
Procedure, shortened: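 Ten-point, 3-fold dilution series (10 μM top, 2% DMSO final) tested for inhibition of 33P transfer from 35 μM ATP to 7.5 μM PIM2tide by 0.25 nM PIM-1. Reaction 60 min, 22 °C, pH 7.4 MOPS/MgCl2 buffer; phosphocellulose capture, scintillation counting, IC50 where fitted POC equals 50.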

T1 sequence (Q9P1W9 whole entry): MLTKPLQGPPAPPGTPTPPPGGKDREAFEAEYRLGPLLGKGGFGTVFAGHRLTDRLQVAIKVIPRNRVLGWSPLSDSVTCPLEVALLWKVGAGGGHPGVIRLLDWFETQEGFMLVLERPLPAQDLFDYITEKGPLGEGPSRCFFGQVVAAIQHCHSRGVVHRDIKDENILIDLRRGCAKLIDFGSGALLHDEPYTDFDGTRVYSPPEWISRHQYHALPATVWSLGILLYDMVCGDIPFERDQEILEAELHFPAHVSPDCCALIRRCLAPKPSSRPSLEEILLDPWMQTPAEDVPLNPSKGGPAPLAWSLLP

IC50 [1] [nM]	IC50 (recombinant rat PIM-3) [nM]	IC50 (PIM-1) [nM]	SMILES
453	2.5	0.48	COCCOc1cccc2ccc(-c3nnc4ccc([C@@H](N5CC[C@H](N)C5)C(F)(F)F)cn34)nc12 [Example 227, (S)-1-((R)-2,2,2-trifluoro-1-(3-(8-(2-methoxyethoxy)quinolin-2-yl)-[1,2,4]triazolo[4,3-a]pyridin-6-yl)ethyl)pyrrolidin-3-amine dihydrochloride]
916	3.8	0.79	N[C@H]1CCN([C@H](c2ccc3nnc(-c4ccc5cc(F)cc(OC(F)F)c5n4)n3c2)C(F)(F)F)C1 [Example 228, (S)-1-((R)-1-(3-(8-(difluoromethoxy)-6-fluoroquinolin-2-yl)-[1,2,4]triazolo[4,3-a]pyridin-6-yl)-2,2,2-trifluoroethyl)pyrrolidin-3-amine dihydrochloride]
55	0.3	0.13	N[C@H]1CCN([C@H](c2ccc3nnc(-c4ccc5cc(F)cc(OCCCO)c5n4)n3c2)C(F)(F)F)C1 [Example 229, 3-(2-(6-((R)-1-((S)-3-aminopyrrolidin-1-yl)-2,2,2-trifluoroethyl)-[1,2,4]triazolo[4,3-a]pyridin-3-yl)-6-fluoroquinolin-8-yloxy)propan-1-ol dihydrochloride]
211	3.2	0.64	C[C@H](CO)Oc1cccc2ccc(-c3nnc4ccc([C@@H](N5CC[C@H](NCC6CC6)C5)C(F)(F)F)cn34)nc12 [Example 230, dihydrochloride]
429	3.5	0.88	CC(C)N[C@H]1CCN([C@H](c2ccc3nnc(-c4ccc5cccc(O[C@H](C)CO)c5n4)n3c2)C(F)(F)F)C1 [Example 231, dihydrochloride]
206	0.8	0.2	N[C@H]1CCN([C@H](c2ccc3nnc(-c4ccc5cc(F)cc(OCC(F)(F)F)c5n4)n3c2)C(F)(F)F)C1 [Example 232, (S)-1-((R)-2,2,2-trifluoro-1-(3-(6-fluoro-8-(2,2,2-trifluoroethoxy)quinolin-2-yl)-[1,2,4]triazolo[4,3-a]pyridin-6-yl)ethyl)pyrrolidin-3-amine dihydrochloride]
260	1.1	0.28	COCCCOc1cc(F)cc2ccc(-c3nnc4ccc([C@@H](N5CC[C@H](N)C5)C(F)(F)F)cn34)nc12 [Example 233, (S)-1-((R)-2,2,2-trifluoro-1-(3-(6-fluoro-8-(3-methoxypropoxy)quinolin-2-yl)-[1,2,4]triazolo[4,3-a]pyridin-6-yl)ethyl)pyrrolidin-3-amine dihydrochloride]
> 1000	33	8.22	CN(C)C(=O)Cc1cccc2ccc(-c3nnc4ccc([C@@H](N5CC[C@H](N)C5)C(F)(F)F)cn34)nc12 [Example 234, 2-(2-(6-((R)-1-((S)-3-aminopyrrolidin-1-yl)-2,2,2-trifluoroethyl)-[1,2,4]triazolo[4,3-a]pyridin-3-yl)quinolin-8-yl)-N,N-dimethylacetamide dihydrochloride]
> 1000	33	7.81	CCNC(=O)Cc1cccc2ccc(-c3nnc4ccc([C@@H](N5CC[C@H](N)C5)C(F)(F)F)cn34)nc12 [Example 235, 2-(2-(6-((R)-1-((S)-3-aminopyrrolidin-1-yl)-2,2,2-trifluoroethyl)-[1,2,4]triazolo[4,3-a]pyridin-3-yl)quinolin-8-yl)-N-ethylacetamide dihydrochloride]
675	2.4	1.08	CC(C)(O)Cc1cc2nc(-c3nnc4ccc([C@@H](N5CC[C@H](N)C5)C(F)(F)F)cn34)ccc2cc1F [Example 236, dihydrochloride]
211	1.8	2.91	CC(C)(O)Cc1cc2nc(-c3nnc4ccc([C@H](N5CC[C@H](N)C5)C(F)(F)F)cn34)ccc2cc1F [Example 237, dihydrochloride]
166	0.6	0.17	C[C@H](CO)Oc1cc(F)cc2ccc(-c3nnc4ccc([C@@H](N5CC[C@H](N)C5)C(F)(F)F)cn34)nc12 [Example 238, (R)-2-(2-(6-((R)-1-((S)-3-aminopyrrolidin-1-yl)-2,2,2-trifluoroethyl)-[1,2,4]triazolo[4,3-a]pyridin-3-yl)-6-fluoroquinolin-8-yloxy)propan-1-ol dihydrochloride]
> 1000	12	1.66	N[C@H]1CCN([C@H](c2ccc3nnc(-c4ccc5ccc(OC(F)(F)F)cc5n4)n3c2)C(F)(F)F)C1 [Example 239, (S)-1-((R)-2,2,2-trifluoro-1-(3-(7-(trifluoromethoxy)quinolin-2-yl)-[1,2,4]triazolo[4,3-a]pyridin-6-yl)ethyl)pyrrolidin-3-amine dihydrochloride]
> 1000	18	2.37	COc1cccc2ccc(-c3nnc4ccc([C@@H](N5CC[C@@](C)(N)C5)C(F)(F)F)cn34)nc12 [Example 240, (R)-3-methyl-1-((R)-2,2,2-trifluoro-1-(3-(8-methoxyquinolin-2-yl)-[1,2,4]triazolo[4,3-a]pyridin-6-yl)ethyl)pyrrolidin-3-amine dihydrochloride]
> 1000	17	2.6	COc1cc(F)cc2ccc(-c3nnc4ccc([C@@H](N5CC[C@@](C)(N)C5)C(F)(F)F)cn34)nc12 [Example 241, (R)-3-methyl-1-((R)-2,2,2-trifluoro-1-(3-(6-fluoro-8-methoxyquinolin-2-yl)-[1,2,4]triazolo[4,3-a]pyridin-6-yl)ethyl)pyrrolidin-3-amine dihydrochloride]
> 1000	15	1.77	COc1cccc2ccc(-c3nnc4ccc([C@@H](N5CC[C@](C)(N)C5)C(F)(F)F)cn34)nc12 [Example 246, (S)-3-methyl-1-((R)-2,2,2-trifluoro-1-(3-(8-methoxyquinolin-2-yl)-[1,2,4]triazolo[4,3-a]pyridin-6-yl)ethyl)pyrrolidin-3-amine dihydrochloride]
392	1.2	0.41	CCOc1cc2nc(-c3nnc4ccc([C@@H](N5CC[C@](C)(N)C5)C(F)(F)F)cn34)ccc2cc1F [Example 247, (S)-1-((R)-1-(3-(7-ethoxy-6-fluoroquinolin-2-yl)-[1,2,4]triazolo[4,3-a]pyridin-6-yl)-2,2,2-trifluoroethyl)-3-methylpyrrolidin-3-amine dihydrochloride]
> 1000	8.1	1.17	COc1cc(F)cc2ccc(-c3nnc4ccc([C@@H](N5CC[C@](C)(N)C5)C(F)(F)F)cn34)nc12 [Example 248, (S)-3-methyl-1-((R)-2,2,2-trifluoro-1-(3-(6-fluoro-8-methoxyquinolin-2-yl)-[1,2,4]triazolo[4,3-a]pyridin-6-yl)ethyl)pyrrolidin-3-amine dihydrochloride]
83	0.8	0.51	CCOc1cc2nc(-c3nnc4ccc([C@H](N5CC[C@H](N)C5)C(F)(F)F)cn34)ccc2cc1F [Example 249, (S)-1-((S)-1-(3-(7-ethoxy-6-fluoroquinolin-2-yl)-[1,2,4]triazolo[4,3-a]pyridin-6-yl)-2,2,2-trifluoroethyl)pyrrolidin-3-amine dihydrochloride]
273	0.9	0.25	N[C@H]1CCN([C@H](c2ccc3nnc(-c4ccc5cc(F)cc(OCCO)c5n4)n3c2)C(F)(F)F)C1 [Example 254, 2-(2-(6-((R)-1-((S)-3-aminopyrrolidin-1-yl)-2,2,2-trifluoroethyl)-[1,2,4]triazolo[4,3-a]pyridin-3-yl)-6-fluoroquinolin-8-yloxy)ethanol dihydrochloride]
284	0.6	0.24	CCOc1ccc2ccc(-c3nnc4ccc([C@@H](N5CC[C@H](N)C5)C(F)(F)F)cn34)nc2c1 [Example 255, (S)-1-((R)-1-(3-(7-ethoxyquinolin-2-yl)-[1,2,4]triazolo[4,3-a]pyridin-6-yl)-2,2,2-trifluoroethyl)pyrrolidin-3-amine dihydrochloride]
199	1	0.58	CCOc1ccc2ccc(-c3nnc4ccc([C@H](N5CC[C@H](N)C5)C(F)(F)F)cn34)nc2c1 [Example 256, (S)-1-((S)-1-(3-(7-ethoxyquinolin-2-yl)-[1,2,4]triazolo[4,3-a]pyridin-6-yl)-2,2,2-trifluoroethyl)pyrrolidin-3-amine dihydrochloride]
724	9	1.45	CCOc1ccc2ccc(-c3nnc4ccc([C@@H](N5CCC6(CCCN6)C5)C(F)(F)F)cn34)nc2c1 (stereo partly drawn) [Example 257, 7-ethoxy-2-(6-((1R)-2,2,2-trifluoro-1-(1,7-diazaspiro[4.4]nonan-7-yl)ethyl)-[1,2,4]triazolo[4,3-a]pyridin-3-yl)quinoline dihydrochloride]

Source: patent US8889704B2 (Array BioPharma Inc., priority 2011, dated 2014)
